Results reported in patent US4582821A, “Inhibition of cyclic nucleotide independent protein kinases” (E. I. Du Pont de Nemours and Company, priority 1983, dated 1986).
Peptide text beside a SMILES is read from it. * marks the point of attachment. Cbz = O=C(OCc1ccccc1)*; CH2Cl = ClC*

Tests used:
[1] = test system: erythroleukemia cell line K-562; test: Tumor cell line growth inhibition, K-562; format: cell-based
Protocol: (§1) In this series of experiments, the tumor cell growth inhibitory capacity of various peptide halomethyl ketones was tested against lymphoma cell lines YAC-1 and MOLT-4, and against an erythroleukemia cell line, K-562. The lymphoma cell line YAC-1 is described by Kiessling, et al., Eur. J. Immunol. 5:112 (1975), and MOLT-4 is described by Minowada, et al., J. Natl. Cancer Inst. 49:891 (1972) and Nilsson, et al., Int. J. Cancer 15:321 (1975). The erythroleukemia cell line K-562 is described by Lozzio, et al., Leuk. Res. 3:363 (1979). In these experiments, cells were grown on standard media as 10 mL suspension cultures. Initial cell density was 10^5 cells/mL. At day 0, test compounds were introduced in ethanol; control cultures received an equal volume of ethanol. Cells were counted at the times indicated.

[2] = target: T1, A-431 cell EGF receptor (Homo sapiens, UniProt P00533); test: Protein phosphorylation of A-431 cell membrane EGF receptors (intact membranes, EGF present); format: biochemical; settings: 600 nmoles/mg protein, intact A-431 membranes
T1 construct: intact A-431 cell membranes were employed, rather than solubilized extracts; endogenous in cells; host or cells: A-431 human epidermoid carcinoma cells (plasma membranes)
T1 sequence (P00533 25-1210): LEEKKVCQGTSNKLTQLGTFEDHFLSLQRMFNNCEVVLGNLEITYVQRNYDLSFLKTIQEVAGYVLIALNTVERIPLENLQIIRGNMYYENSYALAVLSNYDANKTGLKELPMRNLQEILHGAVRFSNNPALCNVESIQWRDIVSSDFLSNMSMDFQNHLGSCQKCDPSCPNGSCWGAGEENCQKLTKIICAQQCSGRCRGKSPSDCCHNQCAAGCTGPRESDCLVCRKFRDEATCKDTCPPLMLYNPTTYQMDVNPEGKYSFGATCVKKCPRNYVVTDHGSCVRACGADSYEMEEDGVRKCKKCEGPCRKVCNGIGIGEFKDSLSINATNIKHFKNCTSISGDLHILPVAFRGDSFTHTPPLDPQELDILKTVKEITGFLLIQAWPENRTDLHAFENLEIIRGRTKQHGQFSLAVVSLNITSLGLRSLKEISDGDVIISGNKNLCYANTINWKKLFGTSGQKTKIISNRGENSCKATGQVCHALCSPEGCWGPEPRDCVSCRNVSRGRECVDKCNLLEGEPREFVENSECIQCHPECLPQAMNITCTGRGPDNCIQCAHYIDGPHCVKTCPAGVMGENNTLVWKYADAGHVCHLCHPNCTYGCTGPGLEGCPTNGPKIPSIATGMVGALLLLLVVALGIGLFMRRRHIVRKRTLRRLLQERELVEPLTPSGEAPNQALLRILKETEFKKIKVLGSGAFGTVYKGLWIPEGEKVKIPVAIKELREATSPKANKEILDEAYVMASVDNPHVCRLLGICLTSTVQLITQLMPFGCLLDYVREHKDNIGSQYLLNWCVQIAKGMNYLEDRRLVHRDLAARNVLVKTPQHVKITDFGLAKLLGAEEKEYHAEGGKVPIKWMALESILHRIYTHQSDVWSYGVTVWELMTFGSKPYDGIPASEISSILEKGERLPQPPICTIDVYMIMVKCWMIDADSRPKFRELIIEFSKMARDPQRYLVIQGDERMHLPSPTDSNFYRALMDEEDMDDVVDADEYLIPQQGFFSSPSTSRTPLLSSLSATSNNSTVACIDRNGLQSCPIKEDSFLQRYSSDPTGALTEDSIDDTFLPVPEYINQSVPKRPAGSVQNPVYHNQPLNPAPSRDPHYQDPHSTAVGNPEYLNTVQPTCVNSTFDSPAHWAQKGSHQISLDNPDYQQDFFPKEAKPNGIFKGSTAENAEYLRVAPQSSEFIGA
Protocol: (§2) Protein phosphorylation assays were conducted substantially as described by Carpenter et al., J. Biol. Chem. 254:4884 (1979). Each assay mixture contained, in a final volume of 70 μL: 20 mM Hepes, pH 7.4, 0.01% bovine serum albumin (BSA), 15-150 μg protein in Triton extract, 100 ng EGF, 1 mM MnCl2 and 10-20 μM [γ-^32 P] ATP (2-4 μCi). Peptide halomethyl ketones were added as solutions in ethanol; an equivalent volume of ethanol was added to controls. Assay mixtures were incubated at about 23° for ten minutes, with or without added EGF. Mixtures were then held at 0° for ten minutes before initiation of phosphorylation by addition of 15 μM γ-^32 P) ATP (2 μCi). Reactions were terminated after 3 minutes at 0° by applying an aliquot of the assay mixture to a Whatman 3MM filter paper (2×2 cm), which was then suspended in ice-cold 10% trichloroacetic acid containing 10 mM pyrophosphate. This suspension was gently shaken for a period of 1 hour, during which the trichloroacetic acid/pyrophosphate mixture was changed three times. Finally, the filter papers were dried and radioactivity measured by scintillation counting.
Assays were conducted substantially as described above, except intact A-431 cell membranes were employed, rather than solubilized extracts, and assay mixtures contained 1 mM ouabain. In these Examples, reactions were permitted to proceed for 6 minutes. This technique is substantially similar to that disclosed by Navarro et al., Biochemistry, 21:6138 (1982).

[3] = test system: lymphoma cell line YAC-1; test: Tumor cell line growth inhibition, YAC-1; format: cell-based
Protocol: as §1

[4] = test system: lymphoma cell line MOLT-4; test: Tumor cell line growth inhibition, MOLT-4; format: cell-based
Protocol: as §1

[5] = test system: A-431 plasma membrane extracts (EGF-mediated protein phosphorylation); test: Protein phosphorylation in solubilized A-431 plasma membrane extracts, with or without EGF; format: biochemical, human; settings: 477 nmol/mg protein; for EGF Added (pmol 32P incorporated/min/mg protein): control 96.2; for No EGF Added (pmol 32P incorporated/min/mg protein): control 21.6
Protocol: The capacity of certain peptide halomethyl ketones to inhibit protein phosphorylation is illustrated by Examples 1-8, below, in which solubilized plasma membranes prepared from A-431 human epidermoid carcinoma cells were incubated with [γ-^32 P] ATP in the presence of EGF.
A-431 human epidermoid carcinoma cells were grown in Dulbecco's modified Eagle's medium containing 5% fetal calf serum. Plasma membranes were isolated by a method substantially similar to that described by Thom et al., Biochem J. 168:187 (1977), and kept at -70°. Solubilization of plasma membranes was performed substantially as described by Cohen et al., J. Biol. Chem. 255:4834 (1980). In this procedure, 7.5 mg/mL protein was solubilized with 5% Triton X-100 (octylphenol), 10% glycerol, and 20 mM Hepes buffer (N-2-hydroxyethylpiperazine-N^1 -2-ethanesulfonic acid), pH 7.4. This mixture was incubated for 20 minutes at about 23°, followed by centrifugation at 100,000 xg for 60 minutes.
as §2

SMILES	% Growth Relative to Control Cultures ([1]; 2.0 μg/mL, day 1) [%]	% Growth Relative to Control Cultures ([1]; 2.0 μg/mL, day 2) [%]	% Growth Relative to Control Cultures ([1]; 2.0 μg/mL, day 3) [%]	% Growth Relative to Control Cultures ([1]; 2.0 μg/mL, day 4) [%]	% Growth Relative to Control Cultures ([1]; 10. μg/mL, day 2) [%]	% Growth Relative to Control Cultures ([1]; 10. μg/mL, day 3) [%]	% Growth Relative to Control Cultures ([1]; 10. μg/mL, day 4) [%]	% Growth Relative to Control Cultures ([1]; 10. μg/mL, day 7) [%]	% inhibition [2] [%]	% Growth Relative to Control Cultures ([4]; 0.4 μg/mL, day 1) [%]	% Growth Relative to Control Cultures ([4]; 0.4 μg/mL, day 2) [%]	% Growth Relative to Control Cultures ([4]; 2.0 μg/mL, day 1) [%]	% Growth Relative to Control Cultures ([4]; 2.0 μg/mL, day 2) [%]	% Growth Relative to Control Cultures ([4]; 2.0 μg/mL, day 3) [%]	% Growth Relative to Control Cultures ([4]; 2.0 μg/mL, day 4) [%]	% Growth Relative to Control Cultures ([4]; 10. μg/mL, day 1) [%]	% Growth Relative to Control Cultures ([4]; 10. μg/mL, day 2) [%]	% Growth Relative to Control Cultures ([4]; 10. μg/mL, day 3) [%]	% Growth Relative to Control Cultures ([4]; 10. μg/mL, day 4) [%]	% Growth Relative to Control Cultures ([4]; 10. μg/mL, day 7) [%]	other results
CC(C)C[C@H](NC(=O)[C@H](CO)NC(=O)CNC(=O)[C@H](Cc1ccccc1)NC(=O)OCc1ccccc1)C(=O)CCl [Z--Phe-Gly-Ser-LeuCH2 Cl, Z-Phe-Gly-Ser-LeuCH2 Cl] (Cbz-FGSL-CH2Cl)	66	13	38	40	14	17	20	65	54	77	40	42	27	87	74	38	17	76	29	49	% Growth Relative to Control Cultures ([1]; 0.4 μg/mL, day 2): 28%; % Growth Relative to Control Cultures ([1]; 0.4 μg/mL, day 3): 27%; % Growth Relative to Control Cultures ([1]; 0.4 μg/mL, day 4): 49%; % Growth Relative to Control Cultures ([1]; 0.4 μg/mL, day 7): 81%; % Growth Relative to Control Cultures ([3]; 0.4 μg/mL, day 2): 63%; % Growth Relative to Control Cultures ([3]; 0.4 μg/mL, day 3): 68%; % Growth Relative to Control Cultures ([3]; 0.4 μg/mL, day 4): 74%; % Growth Relative to Control Cultures ([3]; 0.4 μg/mL, day 7): 61%; % Growth Relative to Control Cultures ([3]; 2.0 μg/mL, day 2): 80%; % Growth Relative to Control Cultures ([3]; 2.0 μg/mL, day 3): 60%; % Growth Relative to Control Cultures ([3]; 2.0 μg/mL, day 4): 66%; % Growth Relative to Control Cultures ([3]; 2.0 μg/mL, day 7): 75%; % Growth Relative to Control Cultures ([3]; 10. μg/mL, day 1): 62%; % Growth Relative to Control Cultures ([3]; 10. μg/mL, day 2): 40%; % Growth Relative to Control Cultures ([3]; 10. μg/mL, day 4): 40%; % Growth Relative to Control Cultures ([3]; 10. μg/mL, day 7): 64%
CC(C)(C)OC(=O)N[C@@H](Cc1ccc(O)cc1)C(=O)CCl [Boc-TyrCH2 Cl]	81	23	15	19	7	2	2	0	34	80		56	31	17	16	39	19	8	3	0	% Growth Relative to Control Cultures ([1]; 2.0 μg/mL, day 7): 44%; % Growth Relative to Control Cultures ([1]; 10. μg/mL, day 1): 64%; % Growth Relative to Control Cultures ([4]; 0.4 μg/mL, day 3): 85%; % Growth Relative to Control Cultures ([4]; 0.4 μg/mL, day 4): 69%; % Growth Relative to Control Cultures ([4]; 2.0 μg/mL, day 7): 31%; % inhibition, EGF Added [5]: 45%; EGF Added (pmol 32P incorporated/min/mg protein) [5]: 53.0 pmol^32 P incorporated/min/mg; % inhibition, No EGF Added [5]: 64%; No EGF Added (pmol 32P incorporated/min/mg protein) [5]: 7.8 pmol^32 P incorporated/min/mg
CC(C)C[C@H](NC(=O)[C@H](C)NC(=O)[C@H](CO)NC(=O)[C@H](Cc1ccccc1)NC(=O)OCc1ccccc1)C(=O)CCl [Z--Phe-Ser-Ala-LeuCH2 Cl, Z-Phe-Ser-Ala-LeuCH2 Cl] (Cbz-FSAL-CH2Cl)		72			4	2	4	7	44		80		85			64	16	4	2	11	% Growth Relative to Control Cultures ([1]; 0.4 μg/mL, day 1): 82%; % Growth Relative to Control Cultures ([1]; 0.4 μg/mL, day 2): 66%; % Growth Relative to Control Cultures ([1]; 10. μg/mL, day 1): 44%; % Growth Relative to Control Cultures ([3]; 0.4 μg/mL, day 1): 58%; % Growth Relative to Control Cultures ([3]; 0.4 μg/mL, day 2): 49%; % Growth Relative to Control Cultures ([3]; 2.0 μg/mL, day 1): 53%; % Growth Relative to Control Cultures ([3]; 2.0 μg/mL, day 2): 53%; % Growth Relative to Control Cultures ([3]; 2.0 μg/mL, day 7): 76%; % Growth Relative to Control Cultures ([3]; 10. μg/mL, day 1): 63%; % Growth Relative to Control Cultures ([3]; 10. μg/mL, day 2): 21%; % Growth Relative to Control Cultures ([3]; 10. μg/mL, day 3): 16%; % Growth Relative to Control Cultures ([3]; 10. μg/mL, day 4): 16%; % Growth Relative to Control Cultures ([3]; 10. μg/mL, day 7): 17%
CC(C)C[C@H](NC(=O)OC(C)(C)C)C(=O)CCl [Boc-LeuCH2 Cl]	17	31	8	15	17	3	6	3	7	73	86	47	28	10	11		38	3	3	4	% Growth Relative to Control Cultures ([1]; 0.4 μg/mL, day 1): 47%; % Growth Relative to Control Cultures ([1]; 0.4 μg/mL, day 3): 53%; % Growth Relative to Control Cultures ([1]; 2.0 μg/mL, day 7): 37%; % Growth Relative to Control Cultures ([1]; 10. μg/mL, day 1): 8%; % Growth Relative to Control Cultures ([4]; 0.4 μg/mL, day 3): 73%; % Growth Relative to Control Cultures ([4]; 0.4 μg/mL, day 7): 86%; % Growth Relative to Control Cultures ([4]; 2.0 μg/mL, day 7): 63%; % inhibition, EGF Added [5]: 28%; EGF Added (pmol 32P incorporated/min/mg protein) [5]: 69.0 pmol^32 P incorporated/min/mg; % inhibition, No EGF Added [5]: 48%; No EGF Added (pmol 32P incorporated/min/mg protein) [5]: 11.3 pmol^32 P incorporated/min/mg
